Here are results for one compound from US20150299219A1, “BICYCLIC PYRAZOLONE COMPOUNDS AND METHODS OF USE” (Calitor Sciences, LLC, priority 2014, published 2015).

The nature of series [1]: Compound stability in rat liver microsomes. Format: in vitro ADME. Here is the method:
(§1) Human or rat liver microsomes incubations were conducted in duplicate in polypropylene tubes. The typical incubation mixtures consisted of human or rat liver microsomes (0.5 mg protein/mL), compounds of interest (5 μM) and NADPH (1.0 mM) in a total volume of 200 μL potassium phosphate buffer (PBS, 100 mM, pH 7.4). Compounds were dissolved in DMSO and diluted with PBS such that the final concentration of DMSO was 0.05%. The enzymatic reactions were commenced with the addition of protein after a 3-min preincubation and incubated in a water bath open to the air at 37° C. Reactions were terminated at various time points (0, 5, 10, 15, 30, 60 min) by adding equal volume of ice-cold acetonitrile. The samples were stored at −80° C. until LC/MS/MS assays.
(§2) The concentrations of compounds in the incubation mixtures of human or rat liver microsomes were determined by a LC/MS/MS method. The ranges of the linearity in the concentration range were determined for each tested compounds.
(§3) A parallel incubation was performed using denatured microsomes as the negative control, and reactions were terminated at various time points (0, 15, 60 min) after incubation at 37° C.
(§4) Dextromethorphan (70 μM) was selected as the positive control, and reactions were terminated at various time points (0, 5, 10, 15, 30, 60 min) after incubation at 37° C. Both positive and negative control samples were included in each assay to ensure the integrity of the microsomal incubation system.
(§5) Alternatively, the stability of some of the compounds disclosed herein in human (or rat) liver microsomes were also conducted in the following protocol. The incubations were conducted in duplicate in polypropylene tubes. The typical incubation mixtures consisted of liver microsomes (final concentration: 0.5 mg protein/mL), compounds (final concentration: 1.5 μM) in a total volume of 30 μL K-buffer (contain 1.0 mM EDTA, 100 mM, pH7.4). Compounds were dissolved in DMSO and diluted with K-buffer such that the final concentration of DMSO was 0.2%. The enzymatic reactions were commenced with the addition of 15 μL of NADPH (final concentration: 2 mM) after 10 min preincubation and incubated in a 37° C. incubator. Reactions were terminated at various time points (0, 15, 30, 60 min) by adding 135 μL acetonitrile (contain IS). Protein is removed by centrifugation with 4000 rpm, 10 min. Supernatant was collected for LCMS/MS analysis
(§6) In the above protocol, ketanserin (1 μM) was selected as the positive control, and reactions were terminated at various time points (0, 15, 30, 60 min) after incubation at 37° C. The positive control sample was included in each assay to ensure the integrity of the microsomal incubation system.
(§7) The concentrations of compounds in human or rat liver microsome incubations were plotted as a percentage of the relevant zero time point control for each reaction. The in vivo CLint were extrapolated (ref: Naritomi, Y.; Terashita, S.; Kimura, S.; Suzuki, A.; Kagayama, A.; and Sugiyama, Y.; Prediction of human hepatic clearance from in vivo animal experiments and in vitro metabolic studies with liver microsomes from animals and humans. Drug Metab. Dispos., 2001, 29: 1316-1324).
On the technique in general: Microsomes from liver hold many membrane-bound enzymes, among them those of drug oxidation.

The nature of series [2]: Compound stability in human liver microsomes. It counts as in vitro ADME. Here is the method:
as §1, §2, §3, §4, §5, §6, §7

Series [3] in a line: Pharmacokinetic profiles in rats. Format: in vivo. The note with it: rat, plasma. Here is the method:
The LC/MS/MS system used in the analysis consists of an Agilent 1200 Series vacuum degasser, binary pump, well-plate autosampler, thermostatted column compartment, the Agilent G6430 Triple Quadrupole Mass Spectrometer with an electrosprayionization (ESI) source. Quantitative analysis was carried out using MRM mode. The parameters for MRM transitions are in the Table A.
An Agilent XDB-C18, 2.1×30 mm, 3.5 μM column was used for the analysis. 5 μL of the samples were injected. Analysis condition: The mobile phase was 0.1% formic acid in water (A) and 0.1% formic acid in methanol (B). The flow rate was 0.4 mL/min. And the gradient of Mobile phase was in the Table B.
Alternatively, an Agilent 6330 series LC/MS/MS spectrometer equipped with G1312A binary pumps, a G1367A autosampler and a G1314C UV detector were used in the analysis. An ESI source was used on the LC/MS/MS spectrometer. The analysis was done in positive ion mode as appropriate and the MRM transition for each analyte was optimized using standard solution. A Capcell MP-C18 100×4.6 mm I.D., […] column (Phenomenex, Torrance, Calif., USA) was used during the analysis. The mobile phase was 5 mM ammonia acetate, 0.1% MeOH in water (A): 5 mM ammonia acetate, 0.1% MeOH in acetonitrile (B) (70/30, v/v). The flow rate was 0.6 mL/min. Column was maintained at ambient temperature. 20 μL of the samples were injected.
The compounds disclosed herein are assessed in pharmacokinetic studies in mice, rats, dogs or monkeys. The compounds are administered as a water solution, 2% HPMC+1% TWEEN®80 in water solution, 5% DMSO+5% solutol in saline, 4% MC suspension or capsule. For the intravenous administration, the animals are generally given at 1 or 2 mg/kg dose. For the oral (p.o.) dosing, mice and rats are generally given 5 or 10 mg/kg dose, and dogs and monkeys are generally given 10 mg/kg dose. The blood samples (0.3 mL) are drawn at 0.25, 0.5, 1.0, 2.0, 3.0, 4.0, 6.0, 8.0, 12 and 24 h time points or 0.083, 0.25, 0.5, 1.0, 2.0, 4.0, 6.0, 8.0 and 24 h time points and centrifuged at 3,000 or 4000 rpm for 2 to 10 min. The plasma solutions are collected, and stored at −20° C. or −70° C. until analyzed by LC/MS/MS as described above.

The mark [4] stands for this setting: pH 7.4, 0.5 mg protein/mL, NADPH, 37° C.
Where [5] appears, read: pH 7.4, in vivo CLint extrapolated.

For orientation: half-life means the time in which the quantity being followed falls by half. Read a high half-life as slow decline. For orientation: CLint scaled means the rate of metabolic loss divided by the concentration. By AUC(0-t) is commonly meant the area under the concentration-time curve up to a stated or last time point. With `Nc1cc(Oc2ccc(NC(=O)c3c4n(n(-c5ccccc5)c3=O)CCC4)cc2)ccn1` [Ex. 1, N-(4-((2-aminopyridin-4-yl)oxy)phenyl)-2-oxo-1-phenyl-2,4,5,6-tetrahydro-1H-pyrrolo[1,2-b]pyrazole-3-carboxamide], the half-life in series [1] (setting [4]) is 1.48 h; in series [2] (setting [4]) it was 3.13 h; in series [3] (iv dosing, 1 mg/kg), 1.51 h. Besides, the CLint scaled in series [1] (setting [5]) is 27.9 mL/min/kg; in series [2] (setting [5]), 9.27 mL/min/kg. This compound displayed an AUC(0-t) in series [3] (iv dosing, 1 mg/kg) of 1190 ng·h/mL. In addition, the Vd in series [3] (iv dosing, 1 mg/kg, read-out: Vss) was determined as 1.2 L/kg. Further, the bioavailability in series [3] (po, bioavailability (F)) was found to be 163%.
